Experimental data published in patent publication US6527981B1, “Azole/amine oxide preservatives” (Lonza Inc., priority 1999, dated 2003).
Converted amounts (≈) assume the structure as drawn. Read-outs that look alike come from different tables or passages of the source.

How the values were obtained:
[1] = system: T. versicolor (white rot fungi); assay: agar dilution plate method, wood rot fungi (MIC, IC50, percent retardation); type: cell-based; conditions: for MIC: Trametes versicolor
[2] = system: G. trabeum (brown rot fungi); assay: as above; type: cell-based; conditions: for MIC: Gloeophyllum trabeum
[3] = system: P. placenta (brown rot fungi); assay: as above; type: cell-based
[4] = system: C. globosum (soft rot decay fungi); assay: as above; type: cell-based; conditions: for MIC: Chaetomium globosum
[5] = 25° C., cited from earlier work; for Solubility in Water^b: Material Safety Data Sheet; for Solubility in water^a: The Pesticide Manual, 11th Edition
[6] = ppm of amine oxide or didecyldimethyl ammonium chloride, Table2D curve fitting
[7] = amine oxide alone, 100% growth retardation
[8] = azole alone, read-out: T. versicolor MIC
[9] = azole alone, Table2D curve fitting
[10] = azole alone, read-out: G. trabeum MIC
[11] = azole alone, read-out: P. placenta MIC
[12] = azole alone, read-out: C. globosum MIC
[13] = amine oxide alone, 100% growth retardation, read-out: MIC (ppm of amine oxides) T. versicolor
[14] = amine oxide alone, 100% growth retardation, read-out: MIC (ppm of amine oxides) G. trabeum
[15] = amine oxide alone, 100% growth retardation, read-out: MIC (ppm of amine oxides) P. placenta
[16] = amine oxide alone, 100% growth retardation, read-out: MIC (ppm of amine oxides) C. globosum

SMILES	Qa, concentration of amine oxide alone required to yield 100% retardation, T. versicolor ([1]; amine oxide alone)	MIC (ppm of amine oxides) T. versicolor [1, 7]	Qa, concentration of amine oxide alone required to yield 100% retardation, G. trabeum ([2]; amine oxide alone)	MIC (ppm of amine oxides) G. trabeum [2, 7]	Qa, concentration of amine oxide alone required to yield 100% retardation, P. placenta ([3]; amine oxide alone)	MIC (ppm of amine oxides) P. placenta [3, 7]	MIC (ppm of amine oxides) C. globosum [4, 7]	MIC [1, 8]	T. versicolor IC50 [1, 9]	MIC [2, 10]	G. trabeum IC50 [2, 9]	P. placenta IC50 [3, 9]	MIC [3, 11]	MIC [4, 12]	MIC [1, 13]	MIC [2, 14]	MIC [3, 15]	other results
CCCCCCCCCC[N+](C)(C)CCCCCCCCCC.[Cl-] [Bardac ® 2280, didecyldimethyl ammonium chloride]																		MIC ([1]; Table 8, ppm of amine oxide or didecyldimethyl ammonium chloride, read-out: MIC T. versicolor): > 1000 µg/mL; IC50 T. versicolor [1, 6]: 28 ppm; MIC ([2]; Table 8, ppm of amine oxide or didecyldimethyl ammonium chloride, read-out: MIC G. trabeum): > 1000 µg/mL; IC50 G. trabeum [2, 6]: 8 ppm; MIC ([3]; Table 8, ppm of amine oxide or didecyldimethyl ammonium chloride, read-out: MIC P. placenta): 1000 µg/mL; IC50 P. placenta [3, 6]: <5 ppm; MIC ([4]; read-out: MIC C. globosum): > 1000 µg/mL; IC50 C. globosum [4, 6]: 28 ppm
CCCCCCCCCCCCCCCCCCCCCC[N+](C)(C)[O-] [Behenyl DMAO]	1000 ppm	>1000 ppm	1000 ppm	>1000 ppm	1000 ppm	>1000 ppm	>1000 ppm											
CC(C1CC1)C(O)(Cn1cncn1)c1ccc(Cl)cc1 (centres unmarked) [Cyproconazole, cyproconazole]								2.5 µg/mL (≈ 8.57 µM)	0.2 ppm	2.5 µg/mL (≈ 8.57 µM)	0.3 ppm	0.7 ppm	2.5 µg/mL (≈ 8.57 µM)	25 µg/mL (≈ 85.7 µM)				C. globosum IC50 [4, 9]: 2.3 ppm
CCCCCCCCCC[N+](C)(C)[O-] [Decyl-DMAO, decyl dimethylamine oxide]	750 ppm		250 ppm		500 ppm										750 µg/mL (≈ 3720 µM)	250 µg/mL (≈ 1240 µM)	500 µg/mL (≈ 2480 µM)	MIC [4, 16]: > 1000 µg/mL
CCCCCCCCCCCC[N+](C)([O-])Cc1ccccc1 (centres unmarked) [Dodecyl-BMAO]		>1000 ppm		1000 ppm		>1000 ppm	>1000 ppm											
CCCCCCCCCCCC[N+](C)(C)[O-] [Dodecyl-DMAO, dodecyldimethylamine oxide]	250 ppm		250 ppm		250 ppm										250 µg/mL (≈ 1090 µM)	250 µg/mL (≈ 1090 µM)	250 µg/mL (≈ 1090 µM)	MIC ([4]; read-out: MIC (ppm of amine oxides) C. globosum): > 1000 µg/mL
N#CC(CCc1ccc(Cl)cc1)(Cn1cncn1)c1ccccc1 (centres unmarked) [Fenbuconazole, fenbuconazole]								25 µg/mL (≈ 74.2 µM)	1.1 ppm	50 µg/mL (≈ 148 µM)	0.3 ppm	3.9 ppm	25 µg/mL (≈ 74.2 µM)	50 µg/mL (≈ 148 µM)				C. globosum IC50 [4, 9]: 10.7 ppm; Solubility in Water^b [5]: 4 ppm at 25 °C; Solubility in water^a [5]: 0.2 ppm/25 °C
CCCCCCCCCCCCCCCC[N+](C)(C)[O-] [Hexadecyl-DMAO, hexadecyl dimethylamine oxide]	1000 ppm		1000 ppm		1000 ppm										> 1000 µg/mL	> 1000 µg/mL	> 1000 µg/mL	MIC [4, 16]: > 1000 µg/mL
CCCCCCCCCCCC[N+]1([O-])CCOCC1 [Lauryl morpholine N-oxide, lauryl morpholine N-oxide]	750 ppm	750 ppm	1000 ppm	1000 ppm	500 ppm	500 ppm	>1000 ppm											
CCCCC(C#N)(Cn1cncn1)c1ccc(Cl)cc1 (centres unmarked) [Myclobutanil, myclobutanil]								50 µg/mL (≈ 173 µM)	6 ppm	> 50 µg/mL	4.3 ppm	13 ppm	50 µg/mL (≈ 173 µM)	> 50 µg/mL				Solubility in Water^b [5]: 142 ppm at 25 °C; Solubility in water^a [5]: 142 ppm/25 °C
